One compound from publication PMC7044277 (Nature Communications, 2020) can be followed below.

What all share (type): cell-based
In assay [1] the target is T1, 320 non-olfactory GPCRs (Homo sapiens, UniProt P30559).
T1 construct: expressed in transfected cells; host or cells: HTLA cells
The following applies: receptor OXTR; replicate values, Fig_4g.

Assay [2] concerns the target T2, 320 non-olfactory GPCRs (Homo sapiens, UniProt Q15761).
T2 construct: expressed in transfected cells; host or cells: HTLA cells
To be noted: receptor NPY5R; replicate values, Fig_4g.

The target of assay [3] is T3, 320 non-olfactory GPCRs (Homo sapiens, UniProt P08173).
T3 construct: expressed in transfected cells; host or cells: HTLA cells
T3 sequence (P08173 whole entry): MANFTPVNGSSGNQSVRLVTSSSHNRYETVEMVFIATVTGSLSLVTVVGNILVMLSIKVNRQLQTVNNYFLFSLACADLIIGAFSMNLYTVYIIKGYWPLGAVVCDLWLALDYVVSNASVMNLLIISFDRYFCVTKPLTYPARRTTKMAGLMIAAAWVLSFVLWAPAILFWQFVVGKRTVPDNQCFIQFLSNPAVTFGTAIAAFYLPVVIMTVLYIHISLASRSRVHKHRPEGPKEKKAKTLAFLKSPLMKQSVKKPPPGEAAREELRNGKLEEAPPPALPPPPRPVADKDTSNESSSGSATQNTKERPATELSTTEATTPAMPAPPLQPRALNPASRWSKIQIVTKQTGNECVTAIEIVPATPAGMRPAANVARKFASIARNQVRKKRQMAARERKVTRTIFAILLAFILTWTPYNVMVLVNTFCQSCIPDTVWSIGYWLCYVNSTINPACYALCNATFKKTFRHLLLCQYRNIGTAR

Assay [4] addresses T4, 320 non-olfactory GPCRs (Homo sapiens, UniProt P43088).
T4 construct: expressed in transfected cells; host or cells: HTLA cells
To be noted: receptor PTGFR; replicate values, Fig_4g.

Molecules are shown by their SMILES. Several values for one entry are separate records, joined by “and”; a condition that tells them apart may be missing. Equal entries are not always repeated.
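For Fold of Basal in this document: compound tested at 1 µM final concentration.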
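For GPCRome agonism screen response in this document: fold over basal response of each receptor without drug.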

T4 sequence (P43088 whole entry): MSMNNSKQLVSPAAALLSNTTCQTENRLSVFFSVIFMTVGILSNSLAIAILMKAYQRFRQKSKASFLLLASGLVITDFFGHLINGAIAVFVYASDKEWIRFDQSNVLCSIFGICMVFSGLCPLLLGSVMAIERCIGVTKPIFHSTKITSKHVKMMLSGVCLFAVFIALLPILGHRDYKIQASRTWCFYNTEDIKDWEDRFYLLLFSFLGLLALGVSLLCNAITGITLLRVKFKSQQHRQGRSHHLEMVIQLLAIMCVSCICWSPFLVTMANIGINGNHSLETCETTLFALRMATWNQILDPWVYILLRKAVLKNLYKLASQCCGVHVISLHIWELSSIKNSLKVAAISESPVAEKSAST
T2 sequence (Q15761 whole entry): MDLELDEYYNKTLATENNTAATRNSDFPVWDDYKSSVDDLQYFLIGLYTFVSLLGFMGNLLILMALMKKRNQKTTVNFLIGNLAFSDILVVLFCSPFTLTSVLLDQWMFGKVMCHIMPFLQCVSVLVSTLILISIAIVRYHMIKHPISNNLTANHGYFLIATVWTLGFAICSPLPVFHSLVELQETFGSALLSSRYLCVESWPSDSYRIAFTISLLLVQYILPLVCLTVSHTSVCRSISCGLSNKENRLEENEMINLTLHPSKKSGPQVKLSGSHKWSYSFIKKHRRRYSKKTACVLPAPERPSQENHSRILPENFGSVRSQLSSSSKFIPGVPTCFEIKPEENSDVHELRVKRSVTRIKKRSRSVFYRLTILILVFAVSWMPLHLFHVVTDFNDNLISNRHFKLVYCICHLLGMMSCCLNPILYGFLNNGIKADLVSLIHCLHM
T1 sequence (P30559 whole entry): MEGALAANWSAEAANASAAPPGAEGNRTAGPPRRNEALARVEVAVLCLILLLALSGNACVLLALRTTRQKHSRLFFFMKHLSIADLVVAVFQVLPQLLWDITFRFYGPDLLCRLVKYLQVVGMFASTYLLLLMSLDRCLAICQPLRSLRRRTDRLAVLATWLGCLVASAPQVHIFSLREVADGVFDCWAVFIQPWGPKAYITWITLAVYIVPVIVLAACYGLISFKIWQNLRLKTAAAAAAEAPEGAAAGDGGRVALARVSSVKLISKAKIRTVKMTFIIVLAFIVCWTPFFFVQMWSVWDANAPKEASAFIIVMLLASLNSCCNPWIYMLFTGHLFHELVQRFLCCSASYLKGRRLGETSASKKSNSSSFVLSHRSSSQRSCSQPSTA

In the case of `CCOc1cccc2cc(C(C)NCC3(O)CCCCC3)oc12` (stereo not shown) [O4LE6], the “GPCRome agonism screen response” value at 320 non-olfactory GPCRs [1] was 1.578 and 1.894 and 1.457 and 1.467; on 320 non-olfactory GPCRs [2], 1.549 and 1.454 and 1.619 and 1.735; at 320 non-olfactory GPCRs [4] it was 0.453 and 1.129 and 0.3537 and 0.6778. Further, the “Fold of Basal” value on 320 non-olfactory GPCRs [3] is 0.6531 and 0.5382 and 0.5491 and 0.5885.
